Data reported in ChEMBL document CHEMBL3259683, “Carbonic anhydrase inhibitors. Inhibition of human cytosolic isoforms I and II with (reduced) Schiff's bases incorporating sulfonamide, carboxylate and carboxymethyl moieties” (Bioorg Med Chem, 2014).

Tests used:
Carbonic anhydrase 1 = Carbonic anhydrase 1 (Homo sapiens, UniProt P00915); assay: Inhibition of human carbonic anhydrase 1-catalyzed CO2 hydration preincubated for 10 mins by stopped-flow assay
[1] = Solubility of the compound in water; assay type: physicochemical; details: buffer
Carbonic anhydrase 2 = Carbonic anhydrase 2 (Homo sapiens, UniProt P00918); assay: Inhibition of human carbonic anhydrase 2-catalyzed CO2 hydration preincubated for 10 mins by stopped-flow assay
Homo sapiens = species: Homo sapiens; assay: Selectivity ratio of Ki for human carbonic anhydrase 2 to Ki for human carbonic anhydrase 1

Chain of Carbonic anhydrase 1 (P00915 whole entry): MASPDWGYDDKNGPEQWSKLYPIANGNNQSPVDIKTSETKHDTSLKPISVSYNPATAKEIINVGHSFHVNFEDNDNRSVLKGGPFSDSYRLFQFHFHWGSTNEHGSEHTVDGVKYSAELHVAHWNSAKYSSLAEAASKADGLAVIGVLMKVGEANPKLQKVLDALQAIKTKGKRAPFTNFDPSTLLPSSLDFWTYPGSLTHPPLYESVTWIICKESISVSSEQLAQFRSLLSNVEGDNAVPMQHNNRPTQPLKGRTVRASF

COC(=O)c1ccc(NCc2ccc(C(C)(C)C)cc2)cc1
Ki (Carbonic anhydrase 1): 251 nM
solubility [1]: soluble

COc1ccc(O)c(/C=N/CCc2ccc(S(N)(=O)=O)cc2)c1
Ki (Carbonic anhydrase 1): 70 nM
Ki (Carbonic anhydrase 2): 12.6 nM
solubility [1]: soluble

COC(=O)c1ccc(/N=C/c2cc(OC)ccc2O)cc1
Ki (Carbonic anhydrase 1): 7450 nM
solubility [1]: soluble

NS(=O)(=O)c1ccc(CC/N=C/c2ccc(O)cc2)cc1
Ki (Carbonic anhydrase 1): 105 nM
Ki (Carbonic anhydrase 2): 43 nM
solubility [1]: soluble

NS(=O)(=O)c1ccc(CC/N=C/c2ccccc2)cc1
solubility [1]: soluble

COC(=O)c1ccc(NCc2ccccc2)cc1
Ratio Ki (Homo sapiens): 111
Ki (Carbonic anhydrase 1): 200 nM
solubility [1]: soluble

CC(C)(C)c1ccc(/C=N/c2ccc(C(=O)O)cc2)cc1
Ki (Carbonic anhydrase 1): 8270 nM
solubility [1]: soluble

O=C(O)c1ccc(/N=C/c2ccc(O)cc2)cc1
solubility [1]: soluble

CC(C)(C)c1ccc(/C=N/Cc2ccc(S(N)(=O)=O)cc2)cc1.Cl
Ki (Carbonic anhydrase 1): 72 nM
solubility [1]: soluble

O=C(O)c1ccc(/N=C/c2ccccc2)cc1
Ki (Carbonic anhydrase 1): 1230 nM
solubility [1]: soluble

CC(C)(C)c1ccc(CNc2ccc(S(N)(=O)=O)cc2)cc1
Ki (Carbonic anhydrase 1): 18.7 nM
solubility [1]: soluble

COC(=O)c1ccc(/N=C/c2ccccc2)cc1
Ki (Carbonic anhydrase 1): 8600 nM
solubility [1]: soluble

COc1ccc(O)c(CNc2ccc(C(=O)O)cc2)c1
Ki (Carbonic anhydrase 1): 189 nM
solubility [1]: soluble

CC(C)(C)c1ccc(CNc2ccc(C(=O)O)cc2)cc1
Ki (Carbonic anhydrase 1): 266 nM
solubility [1]: soluble

CC(C)(C)c1ccc(CNCCc2ccc(S(N)(=O)=O)cc2)cc1
Ki (Carbonic anhydrase 1): 50.3 nM
Ki (Carbonic anhydrase 2): 8.6 nM
solubility [1]: soluble

COc1ccc(O)c(/C=N/c2ccc(S(N)(=O)=O)cc2)c1
Ki (Carbonic anhydrase 1): 52 nM
solubility [1]: soluble

Cl.NS(=O)(=O)c1ccc(C/N=C/c2ccccc2)cc1
Ki (Carbonic anhydrase 1): 93 nM
solubility [1]: soluble

COc1ccc(O)c(/C=N/c2ccc(C(=O)O)cc2)c1
Ki (Carbonic anhydrase 1): 1290 nM
solubility [1]: soluble

Cl.NS(=O)(=O)c1ccc(CNCc2ccccc2)cc1
Ki (Carbonic anhydrase 1): 30.3 nM
solubility [1]: soluble

O=C(O)c1ccc(NCc2ccc(O)cc2)cc1
Ki (Carbonic anhydrase 1): 116 nM
solubility [1]: soluble

COc1ccc(O)c(CNCc2ccc(S(N)(=O)=O)cc2)c1.Cl
Ki (Carbonic anhydrase 1): 51.9 nM
solubility [1]: soluble

CC(C)(C)c1ccc(/C=N/CCc2ccc(S(N)(=O)=O)cc2)cc1
Ki (Carbonic anhydrase 1): 665 nM
Ki (Carbonic anhydrase 2): 11.2 nM
solubility [1]: soluble

COC(=O)c1ccc(NCc2ccc(O)cc2)cc1
Ki (Carbonic anhydrase 1): 209 nM
solubility [1]: soluble

COc1ccc(O)c(/C=N/Cc2ccc(S(N)(=O)=O)cc2)c1.Cl
Ki (Carbonic anhydrase 1): 92 nM
solubility [1]: soluble

COC(=O)c1ccc(/N=C/c2ccc(O)cc2)cc1
Ki (Carbonic anhydrase 1): 1040 nM
solubility [1]: soluble

NS(=O)(=O)c1ccc(/N=C/c2ccccc2)cc1
Ki (Carbonic anhydrase 1): 311 nM
solubility [1]: soluble

O=C(O)c1ccc(NCc2ccccc2)cc1
Ki (Carbonic anhydrase 1): 56.7 nM
solubility [1]: soluble

CC(C)(C)c1ccc(CNCc2ccc(S(N)(=O)=O)cc2)cc1.Cl
Ki (Carbonic anhydrase 1): 25.5 nM
solubility [1]: soluble

COC(=O)c1ccc(NCc2cc(OC)ccc2O)cc1
Ratio Ki (Homo sapiens): 23
Ki (Carbonic anhydrase 1): 228 nM
solubility [1]: soluble

COC(=O)c1ccc(/N=C/c2ccc(C(C)(C)C)cc2)cc1
Ki (Carbonic anhydrase 1): 7460 nM
solubility [1]: soluble

Cl.NS(=O)(=O)c1ccc(CNCc2ccc(O)cc2)cc1
Ki (Carbonic anhydrase 1): 59.5 nM
solubility [1]: soluble

CC(C)(C)c1ccc(/C=N/c2ccc(S(N)(=O)=O)cc2)cc1
Ki (Carbonic anhydrase 1): 85 nM
solubility [1]: soluble

COc1ccc(O)c(CNCCc2ccc(S(N)(=O)=O)cc2)c1
Ki (Carbonic anhydrase 1): 56 nM
Ki (Carbonic anhydrase 2): 51.5 nM
solubility [1]: soluble

NS(=O)(=O)c1ccc(NCc2ccc(O)cc2)cc1
Ki (Carbonic anhydrase 1): 29 nM
Ki (Carbonic anhydrase 2): 702 nM
solubility [1]: soluble

COc1ccc(O)c(CNc2ccc(S(N)(=O)=O)cc2)c1
Ki (Carbonic anhydrase 1): 23.5 nM
solubility [1]: soluble

NS(=O)(=O)c1ccc(CCNCc2ccc(O)cc2)cc1
Ki (Carbonic anhydrase 1): 92.1 nM
Ki (Carbonic anhydrase 2): 236 nM
solubility [1]: soluble

NS(=O)(=O)c1ccc(CCNCc2ccccc2)cc1
solubility [1]: soluble

NS(=O)(=O)c1ccc(/N=C/c2ccc(O)cc2)cc1
Ki (Carbonic anhydrase 1): 80 nM
Ki (Carbonic anhydrase 2): 11.1 nM
solubility [1]: soluble
